This note sets out measurements from patent US7608627B2, “6-azaindole compound” (Takeda Pharmaceutical Company Limited, priority 2005, dated 2009).

Structures can show the parent of a compound that is named as a salt.

What is called melting point is the temperature, or range, at which the solid turns liquid. For the compound `CNCc1cc2ccnc(Cl)c2[nH]1.Cl`, the melting point is 264 to 266 °C (dec.).
`Cl.Clc1nccc2cc(CNCc3ccccc3)[nH]c12` showed a melting point of 201 to 204 °C.
To `Cl.c1ccc(CON=C(c2ccccc2)c2cc3ccncc3[nH]2)cc1` belongs 153 to 155 °C.
In the case of `Cl.Clc1nccc2cc(CNC3CCCC3)[nH]c12` it was 241 to 244 °C; in that of `Cl.Clc1nccc2cc(CNCc3ccco3)[nH]c12`, 98 to 101 °C.
Turning to `Cl.Clc1nccc2cc(CNCCN3CCOCC3)[nH]c12`, the melting point was 146 to 150 °C.
`Cl.Clc1nccc2cc(CNCc3ccccn3)[nH]c12`: the melting point is 176 to 179 °C.
`CN1CCN(C(=O)c2cc3ccnc(Cl)c3[nH]2)CC1` had a melting point of 230 to 232 °C.
On to `Cl.Clc1nccc2cc(CNC3CCN(Cc4ccccc4)CC3)[nH]c12`, for which the melting point is 295 to 310 °C (dec.).
To `Cl.Clc1nccc2cc(CN3CCCCC3)[nH]c12` belongs 240 to 244 °C; to `Cl.NCCCO/N=C(\c1ccccc1)c1cc2ccncc2[nH]1`, 168 to 174 °C (dec.); to `CCNCc1cc2ccnc(Cl)c2[nH]1.Cl`, 242 to 245 °C (dec.).
To `N=C(N)NN=C(c1ccccc1)c1cc2ccncc2[nH]1` (as salt: hydrochloride) belongs 306 to 310 °C; to `N=C(N)N/N=C(\c1ccccc1)c1cc2cc(Cl)ncc2[nH]1` (as salt: hydrochloride), 274 to 278 °C; to `NCc1cc2ccncc2[nH]1` (as salt: hydrochloride), 302 to 303 °C.
To `CC(C)/C(=N\NC(=N)N)c1cc2ccncc2[nH]1` (as salt: hydrochloride) belongs 242 to 245 °C.
The compound `CC(C)C/C(=N\NC(=N)N)c1cc2ccncc2[nH]1` (as salt: hydrochloride) gave a melting point of 232 to 236 °C.
To `Clc1nccc2cc(C(NCc3ccccc3)c3ccccc3)[nH]c12` (stereo not drawn) (as salt: hydrochloride) [Example 34, N-Benzyl-N-[(7-chloro-1H-pyrrolo[2,3-c]pyridin-2-yl)(phenyl)methyl]amine dihydrochloride] belongs 170 to 185 °C (dec.).
With `NC(c1ccccc1)c1cc2ccncc2[nH]1` (stereo not drawn) (as salt: hydrochloride) [Example 40, 1-Phenyl-1-(1H-pyrrolo[2,3-c]pyridin-2-yl)methylamine dihydrochloride], the melting point lay within 240 to 250 °C.
Regarding `C/C(=N\NC(=N)N)c1cc2ccncc2[nH]1` (as salt: hydrochloride) [Example 71, [[1-(1H-Pyrrolo[2,3-c]pyridin-2-yl)ethylidene]amino]guanidine dihydrochloride], the melting point was 314 to 318 °C (dec.).
For the compound `CC(N)c1cc2ccncc2[nH]1` (stereo not drawn) (as salt: hydrochloride) [Example 75, 1-(1H-Pyrrolo[2,3-c]pyridin-2-yl)ethylamine dihydrochloride], the melting point was 289 to 292 °C.
In the case of `NCCON=C(c1ccc(Cl)c(Cl)c1)c1cc2ccncc2[nH]1` (as salt: trifluoroacetate) [Example 134, (3,4-Dichlorophenyl)(1H-pyrrolo[2,3-c]pyridin-2-yl)methanone O-(2-aminoethyl)oxime bis(hydrogen trifluoroacetate)] it was 64 to 68 °C; in that of `Cl.Cl.c1ccc(C(=NOC2CCCNC2)c2cc3ccncc3[nH]2)cc1` (single isomer, unassigned), 240 to 245 °C (dec.).
As to `c1ccc(C(=NOC2CCNCC2)c2cc3ccncc3[nH]2)cc1` (single isomer, unassigned) (as salt: hydrochloride), the melting point was 240 to 245 °C (dec.).
Turning to `c1ccc(C(=NOC2CCCNC2)c2cc3ccncc3[nH]2)cc1` (single isomer, unassigned) (as salt: hydrochloride), the melting point was 240 to 245 °C (dec.).
To `COc1ccc(/C(=N/OCCN)c2cc3ccncc3[nH]2)cc1` (single isomer, unassigned) (as salt: hydrochloride) [Example 124, (4-Methoxyphenyl)(1H-pyrrolo[2,3-c]pyridin-2-yl)methanone O-(2-aminoethyl)oxime dihydrochloride] belongs 178 to 184 °C.
To `Cc1ccc(/C(=N/OCCN)c2cc3ccncc3[nH]2)cc1` (single isomer, unassigned) (as salt: trifluoroacetate) [Example 119, (4-Methylphenyl)(1H-pyrrolo[2,3-c]pyridin-2-yl)methanone O-(2-aminoethyl)oxime bis(hydrogen trifluoroacetate)] belongs 190 to 194 °C.
To `NCCO/N=C(/c1ccc(Cl)cc1)c1cc2ccncc2[nH]1` (single isomer, unassigned) (as salt: trifluoroacetate) [Example 126, (4-Chlorophenyl)(1H-pyrrolo[2,3-c]pyridin-2-yl)methanone O-(2-aminoethyl)oxime bis(hydrogen trifluoroacetate)] belongs 146 to 150 °C.
`CC(C)(C)OC(=O)NCCO/N=C(\c1ccc(Cl)cc1)c1cc2ccncc2[nH]1` (single isomer, unassigned) [Example 116, tert-Butyl 2-[[[(4-chlorophenyl)(1H-pyrrolo[2,3-c]pyridin-2-yl)methylene]amino]oxy]ethylcarbamate] returned a melting point of 166 to 169 °C.
To `OCc1cc2ccnc(Cl)c2[nH]1` [Example 1, (7-Chloro-1H-pyrrolo[2,3-c]pyridin-2-yl)methanol] belongs 185 to 187 °C; to `O=C(NCc1ccccc1)c1cc2ccnc(Cl)c2[nH]1` [Example 2, N-Benzyl-7-chloro-1H-pyrrolo[2,3-c]pyridine-2-carboxamide], 217 to 220 °C; to `O=C(c1cc2ccnc(Cl)c2[nH]1)N1CCOCC1` [Example 3, 7-Chloro-2-(4-morpholinylcarbonyl)-1H-pyrrolo[2,3-c]pyridine], 170 to 171 °C.
In the case of `O=C(NCc1ccccn1)c1cc2ccnc(Cl)c2[nH]1` [Example 4, 7-Chloro-N-(2-pyridinylmethyl)-1H-pyrrolo[2,3-c]pyridine-2-carboxamide] it was 177 to 183 °C; in that of `O=C(NCc1cccnc1)c1cc2ccnc(Cl)c2[nH]1` [Example 5, 7-Chloro-N-(3-pyridinylmethyl)-1H-pyrrolo[2,3-c]pyridine-2-carboxamide], 189 to 191 °C.
With `O=C(NCc1ccncc1)c1cc2ccnc(Cl)c2[nH]1` [Example 6, 7-Chloro-N-(4-pyridinylmethyl)-1H-pyrrolo[2,3-c]pyridine-2-carboxamide], the melting point is greater than 340 °C.
In the case of `O=C(NCc1ccco1)c1cc2ccnc(Cl)c2[nH]1` [Example 7, 7-Chloro-N-(2-furylmethyl)-1H-pyrrolo[2,3-c]pyridine-2-carboxamide] it was 205 to 209 °C; in that of `O=C(NCc1cccs1)c1cc2ccnc(Cl)c2[nH]1` [Example 8, 7-Chloro-N-(2-thienylmethyl)-1H-pyrrolo[2,3-c]pyridine-2-carboxamide], 179 to 181 °C; in that of `CC(=O)N1CCN(C(=O)c2cc3ccnc(Cl)c3[nH]2)CC1` [Example 12, 2-[(4-Acetyl-1-piperazinyl)carbonyl]-7-chloro-1H-pyrrolo[2,3-c]pyridine], 179 to 184 °C.
For the compound `O=C(c1cc2ccnc(Cl)c2[nH]1)N1CCCC1` [Example 13, 7-Chloro-2-(1-pyrrolidinylcarbonyl)-1H-pyrrolo[2,3-c]pyridine], the melting point fell in the range of 152 to 154 °C.
In the case of `O=C(c1cc2ccnc(Cl)c2[nH]1)N1CCSCC1` [Example 14, 7-Chloro-2-(4-thiomorpholinylcarbonyl)-1H-pyrrolo[2,3-c]pyridine] it was 62 to 72 °C; in that of `O=C(Nc1ccccn1)c1cc2ccnc(Cl)c2[nH]1` [Example 20, 7-Chloro-N-(2-pyridinyl)-1H-pyrrolo[2,3-c]pyridine-2-carboxamide], 94 to 102 °C; in that of `O=C(Nc1cccnc1)c1cc2ccnc(Cl)c2[nH]1` [Example 21, 7-Chloro-N-(3-pyridinyl)-1H-pyrrolo[2,3-c]pyridine-2-carboxamide], greater than 320 °C.
In the case of `O=C(Nc1ccncc1)c1cc2ccnc(Cl)c2[nH]1` [Example 22, 7-Chloro-N-(4-pyridinyl)-1H-pyrrolo[2,3-c]pyridine-2-carboxamide] it was greater than 320 °C; in that of `O=C(NCc1ccccn1)c1cc2ccncc2[nH]1` [Example 27, N-(2-Pyridinylmethyl)-1H-pyrrolo[2,3-c]pyridine-2-carboxamide], 230 to 236 °C; in that of `O=C(c1ccccc1)c1cc2ccnc(Cl)c2[nH]1` [Example 29, (7-Chloro-1H-pyrrolo[2,3-c]pyridin-2-yl)(phenyl)methanone], 152 to 153 °C.
In the case of `O=C(Nc1cccnc1)c1cc2ccncc2[nH]1` [Example 30, N-(3-Pyridinyl)-1H-pyrrolo[2,3-c]pyridine-2-carboxamide] it was 270 to 290 °C; in that of `O=C(c1ccsc1)c1cc2ccncc2[nH]1` [Example 32, (1H-Pyrrolo[2,3-c]pyridin-2-yl)(thien-3-yl)methanone], 178 to 181 °C (dec.).
As to `O=C(c1cc2ccncc2[nH]1)N1CCCC1` [Example 33, 2-(1-Pyrrolidinylcarbonyl)-1H-pyrrolo[2,3-c]pyridine], the melting point was 260 to 275 °C (dec.).
Compound `O=C(c1ccccc1)c1cc2ccncc2[nH]1` [Example 35, Phenyl(1H-pyrrolo[2,3-c]pyridin-2-yl)methanone] had a melting point of 245 to 247 °C.
For the compound `O=C(NCc1cccnc1)c1cc2ccnc(N(Cc3ccccc3)Cc3ccccc3)c2[nH]1` [Example 37, 7-(Dibenzylamino)-N-(3-pyridinylmethyl)-1H-pyrrolo[2,3-c]pyridine-2-carboxamide], the melting point was in the range of 105 to 108 °C.
To `O=C(NCc1cccs1)c1cc2ccnc(N(Cc3ccccc3)Cc3ccccc3)c2[nH]1` [Example 38, 7-(Dibenzylamino)-N-(2-thienylmethyl)-1H-pyrrolo[2,3-c]pyridine-2-carboxamide] belongs 152 to 154 °C.
